Reference: patent US4946838A, “Crystalline anhydrous aztreonam” (priority 1986, dated 1990)
Entries after “also recorded” stand apart in the source; their conditions may differ. Read-outs that look alike come from different tables or passages of the source.

How the values were obtained:
[1] = Hydration (water content) of crystalline forms; type: physicochemical; conditions: for Hydration: in words
[2] = Crystallinity and morphology (microscopy, X-ray diffraction); type: physicochemical
[3] = Intrinsic Dissolution Rate; type: physicochemical; conditions: in words
[4] = Differential Scanning Calorimetry (DSC), peak temperatures; type: physicochemical
[5] = Powder properties (density, surface area, flowability); type: physicochemical; conditions: in words
[6] = Hygroscopicity (Equilibrium Moisture Content and rate); type: physicochemical; conditions: for Hygroscopicity: Rate: in words
[7] = compared with α-form or simple salts; powder for reconstitution

SMILES: C[C@H]1[C@H](NC(=O)/C(=N\OC(C)(C)C(=O)O)c2csc(N)n2)C(=O)N1S(=O)(=O)O [α-Form, [3S-[3α(Z),4β]]-3-[[(2-amino-4-thiazolyl)[(1-carboxy-1-methylethoxy)imino]acetyl]amino]-4-methyl-2-oxo-1-azetidinesulfonic acid]
- Hydration, water content [1]: 7-14 % water
- Hydration [1]: Hydrous
- Morphology [2]: needles or rods
- Crystallinity: X-ray diffraction [2]: crystalline
- Crystallinity: Microscopy [2]: birefringent
- Intrinsic Dissolution Rate [3]: slow
- DSC, peak temperature, exotherm ([4]; decomp.): 200 °C
- DSC, peak temperature, endotherm ([4]; dehydration): 107 °C
- Density [5]: low
- Flowability [5]: poor
- Surface Area [5]: high
- Hygroscopicity: EMC (Equilibrium Moisture Content) [6]: 0-14%
- Hygroscopicity: Rate [6]: rapid

SMILES: C[C@H]1[C@H](NC(=O)/C(=N\OC(C)(C)C(=O)O)c2csc(N)n2)C(=O)N1S(=O)(=O)O [β-Form, [3S-[3α(Z),4β]]-3-[[(2-amino-4-thiazolyl)[(1-carboxy-1-methylethoxy)imino]acetyl]amino]-4-methyl-2-oxo-1-azetidinesulfonic acid]
- Hydration, water content [1]: 0-1 % water
- Hydration [1]: Anhydrous
- Hydration ([1]; listed as β-form): anhydrous
- Morphology [2]: spiny fused spherulites
- Crystallinity: X-ray diffraction [2]: crystalline
- Crystallinity: Microscopy [2]: birefringent
- Intrinsic Dissolution Rate [3]: fast
- DSC, peak temperature, exotherm ([4]; decomp, when crystallized from absolute ethanol): 228 °
- DSC, peak temperature, exotherm ([4]; decomp, when crystallized from absolute methanol): 238 °
- DSC, endotherm ([4]; in words): none
- Density [5]: high
- Flowability [5]: good
- Surface Area [5]: low
- Density ([5]; listed as β-form): dense
- Hygroscopicity [6]: nonhygroscopic; also recorded: substantially non-hygroscopic
- Hygroscopicity: EMC (Equilibrium Moisture Content) [6]: 0-3%
- Hygroscopicity: Rate [6]: slow
- Hygroscopicity ([6]; listed as crystalline, anhydrous form): substantially non-hygroscopic
- Shelf life [7]: greater than that of the α-form, or for that matter simple salts of the compound
